Where a name gives a salt, the structure may show the parent alone.
Assays:
Assay in all cases: Substrate hydrolysis on Columbia agar
Format in all cases: cell-based
Bacillus licusniforms = Bacillus licusniforms NCIMB 9375; 300 mg/l; 18 hours
C. diversus = conditions: 300 mg/l, 18 hours
Enterococcus gellinarum = Enterococcus gellinarum NCTC 11428; 300 mg/l; 18 hours
Vibrio anguillarum = Vibrio anguillarum NCTC 12159; 300 mg/l; 18 hours
Salmonella typhi = Salmonella typhi NCTC 8385; 300 mg/l; 18 hours
Aeromonas caviae = test system: Aeromonas caviae; set-up: key to the marks not given beside the values; conditions: Aeromonas caviae NCTC 10852; 300 mg/l; 18 hours
Salmonella orthmarchen = Salmonella orthmarchen SAX 59; 300 mg/l; 18 hours
Enterococcus durans = Enterococcus durans NCTC 8307; 300 mg/l; 18 hours
[1] = test system: Staphylococcus epidermidis; conditions: 300 mg/l, 18 hours
Aeromonas sobria = Aeromonas sobria NCTC 11215; 300 mg/l; 18 hours
Vibrio cincinnatiensis = Vibrio cincinnatiensis NCTC 12012; 300 mg/l; 18 hours
Salmonella hadar = Salmonella hadar SAX 57; 300 mg/l; 18 hours
Streptococcus crista = Streptococcus crista NCTC 12479; 300 mg/l; 18 hours
E. aerogenes = conditions: 300 mg/l, 18 hours
Streptococcus pneumoniae = Streptococcus pneumoniae NCTC 7465; 300 mg/l; 18 hours
Listeria innocua = Listeria innocua PHLS wild; 300 mg/l; 18 hours
Vibrio metschnikovii = Vibrio metschnikovii NCTC 8443; 300 mg/l; 18 hours
Salmonella panama = Salmonella panama SAX 58; 300 mg/l; 18 hours
[2] = test system: Arcanobacterium haemolyticus; conditions: Arcanobacterium haemolyticus NCTC 52; 300 mg/l; 18 hours
M. morganii = conditions: 300 mg/l, 18 hours
Streptococcus gordonii = Streptococcus gordonii NCTC 7865; 300 mg/l; 18 hours
[3] = test system: Haemolytic streptococcus G; conditions: 300 mg/l, 18 hours
E. coli = conditions: 300 mg/l, 18 hours
E. cloacae = test system: E. cloacae; set-up: key to the marks not given beside the values; conditions: 300 mg/l, 18 hours
K. pneumoniae = test system: K. pneumoniae; set-up: key to the marks not given beside the values; conditions: 300 mg/l, 18 hours
[4] = Staphylococcus epidermidis RB60
[5] = Staphylococcus epidermidis RB62
[6] = Staphylococcus epidermidis RB63
[7] = Staphylococcus epidermidis RB64
[8] = Staphylococcus epidermidis RB65

3′,4′-dihydroxyflavone-4′-β-D-glucopyranoside sodium salt [DHF-glucoside]
Hydrolysis by Gram positive organisms (Bacillus licusniforms): + | Hydrolysis by Gram negative bacteria (C. diversus; C. diversus CDI 1): − | Hydrolysis by Gram negative bacteria (C. diversus; C. diversus CDI 2): − | Hydrolysis by Gram positive organisms (Enterococcus gellinarum): ++ | Hydrolysis by Gram negative bacteria (Vibrio anguillarum): − | Hydrolysis by Gram negative bacteria (Salmonella typhi): − | Hydrolysis by Gram negative bacteria (Aeromonas caviae): ++ | Hydrolysis by Gram negative bacteria (Salmonella orthmarchen): − | Hydrolysis by Gram positive organisms (Enterococcus durans): ++ | Hydrolysis by Gram positive organisms [1, 4]: − | Hydrolysis by Gram positive organisms [1, 5]: − | Hydrolysis by Gram positive organisms [1, 6]: − | Hydrolysis by Gram positive organisms [1, 7]: ++ | Hydrolysis by Gram positive organisms [1, 8]: − | Hydrolysis by Gram negative bacteria (Aeromonas sobria): − | Hydrolysis by Gram negative bacteria (Vibrio cincinnatiensis): + | Hydrolysis by Gram negative bacteria (Salmonella hadar): − | Hydrolysis by Gram positive organisms (Streptococcus crista): − | Hydrolysis by Gram negative bacteria (E. aerogenes; E. aerogenes EAE 1): + | Hydrolysis by Gram negative bacteria (E. aerogenes; E. aerogenes NCIMB 10102): + | Hydrolysis by Gram positive organisms (Streptococcus pneumoniae): − | Hydrolysis by Gram positive organisms (Listeria innocua): ++ | Hydrolysis by Gram negative bacteria (Vibrio metschnikovii): − | Hydrolysis by Gram negative bacteria (Salmonella panama): − | Hydrolysis by Gram positive organisms [2]: − | Hydrolysis by Gram negative bacteria (M. morganii; M. morganii MMO 1): + | Hydrolysis by Gram negative bacteria (M. morganii; M. morganii MMO 2): + | Hydrolysis by Gram negative bacteria (M. morganii; M. morganii NCTC 235): − | Hydrolysis by Gram positive organisms (Streptococcus gordonii): − | Hydrolysis by Gram positive organisms ([3]; Haemolytic streptococcus G 1): − | Hydrolysis by Gram positive organisms ([3]; Haemolytic streptococcus G 2): − | Hydrolysis by Gram positive organisms ([3]; Haemolytic streptococcus G 3): − | Hydrolysis by Gram negative bacteria (E. coli; E. coli ECO 2): − | Hydrolysis by Gram negative bacteria (E. coli; E. coli ECO 3): − | Hydrolysis by Gram negative bacteria (E. coli; E. coli ECO 4): − | Hydrolysis by Gram negative bacteria (E. coli; E. coli ECO 5): − | Hydrolysis by Gram negative bacteria (E. coli; E. coli ECO 6): − | Hydrolysis by Gram negative bacteria (E. coli; E. coli ECO 7): − | Hydrolysis by Gram negative bacteria (E. coli; E. coli ECO 8): − | Hydrolysis by Gram negative bacteria (E. coli; E. coli ECO 9): − | Hydrolysis by Gram negative bacteria (E. coli; E. coli ECO 10): − | Hydrolysis by Gram negative bacteria (E. coli; E. coli ECO 11): − | Hydrolysis by Gram negative bacteria (E. coli; E. coli ECO 12): − | Hydrolysis by Gram negative bacteria (E. coli; E. coli NCTC 10418): −

O=c1cc(-c2ccc(OC3OC(CO)C(O)C3O)c(O)c2)oc2ccccc12 [DHF-riboside, 3′,4′-dihydroxyflavone-4′-β-D-ribofuranoside Sodium Salt]
Hydrolysis by Gram positive organisms (Bacillus licusniforms): − | Hydrolysis by Gram negative bacteria (C. diversus; C. diversus CDI 1): ++ | Hydrolysis by Gram negative bacteria (C. diversus; C. diversus CDI 2): ++ | Hydrolysis by Gram positive organisms (Enterococcus gellinarum): + | Hydrolysis by Gram negative bacteria (Vibrio anguillarum): − | Hydrolysis by Gram negative bacteria (Salmonella typhi): ++ | Hydrolysis by Gram negative bacteria (Aeromonas caviae): ++ | Hydrolysis by Gram negative bacteria (Salmonella orthmarchen): ++ | Hydrolysis by Gram positive organisms (Enterococcus durans): − | Hydrolysis by Gram positive organisms [1, 4]: ++ | Hydrolysis by Gram positive organisms [1, 5]: + | Hydrolysis by Gram positive organisms [1, 6]: + | Hydrolysis by Gram positive organisms [1, 7]: + | Hydrolysis by Gram positive organisms [1, 8]: + | Hydrolysis by Gram negative bacteria (Aeromonas sobria): 0 | Hydrolysis by Gram negative bacteria (Vibrio cincinnatiensis): − | Hydrolysis by Gram negative bacteria (Salmonella hadar): ++ | Hydrolysis by Gram positive organisms (Streptococcus crista): − | Hydrolysis by Gram negative bacteria (E. aerogenes; E. aerogenes EAE 1): ++ | Hydrolysis by Gram negative bacteria (E. aerogenes; E. aerogenes NCIMB 10102): ++ | Hydrolysis by Gram positive organisms (Streptococcus pneumoniae): − | Hydrolysis by Gram negative bacteria (E. cloacae; E. cloacae ECL 1): ++ | Hydrolysis by Gram negative bacteria (E. cloacae; E. cloacae ECL 2): ++ | Hydrolysis by Gram negative bacteria (E. cloacae; E. cloacae ECL 3): ++ | Hydrolysis by Gram negative bacteria (E. cloacae; E. cloacae ECL 4): ++ | Hydrolysis by Gram negative bacteria (E. cloacae; E. cloacae NCTC 11936): ++ | Hydrolysis by Gram positive organisms (Listeria innocua): − | Hydrolysis by Gram negative bacteria (Vibrio metschnikovii): ++ | Hydrolysis by Gram negative bacteria (Salmonella panama): ++ | Hydrolysis by Gram positive organisms [2]: + | Hydrolysis by Gram negative bacteria (M. morganii; M. morganii MMO 1): + | Hydrolysis by Gram negative bacteria (M. morganii; M. morganii MMO 2): + | Hydrolysis by Gram negative bacteria (M. morganii; M. morganii NCTC 235): − | Hydrolysis by Gram negative bacteria (K. pneumoniae; K. pneumoniae KPN 2): ++ | Hydrolysis by Gram negative bacteria (K. pneumoniae; K. pneumoniae KPN 3): ++ | Hydrolysis by Gram negative bacteria (K. pneumoniae; K. pneumoniae KPN 4): ++ | Hydrolysis by Gram negative bacteria (K. pneumoniae; K. pneumoniae NCTC 10896): ++ | Hydrolysis by Gram positive organisms (Streptococcus gordonii): − | Hydrolysis by Gram positive organisms ([3]; Haemolytic streptococcus G 1): − | Hydrolysis by Gram positive organisms ([3]; Haemolytic streptococcus G 2): − | Hydrolysis by Gram positive organisms ([3]; Haemolytic streptococcus G 3): + | Hydrolysis by Gram negative bacteria (E. coli; E. coli ECO 2): ++ | Hydrolysis by Gram negative bacteria (E. coli; E. coli ECO 3): ++ | Hydrolysis by Gram negative bacteria (E. coli; E. coli ECO 4): ++ | Hydrolysis by Gram negative bacteria (E. coli; E. coli ECO 5): ++ | Hydrolysis by Gram negative bacteria (E. coli; E. coli ECO 6): ++ | Hydrolysis by Gram negative bacteria (E. coli; E. coli ECO 7): ++ | Hydrolysis by Gram negative bacteria (E. coli; E. coli ECO 8): ++ | Hydrolysis by Gram negative bacteria (E. coli; E. coli ECO 9): ++ | Hydrolysis by Gram negative bacteria (E. coli; E. coli ECO 10): ++ | Hydrolysis by Gram negative bacteria (E. coli; E. coli ECO 11): ++ | Hydrolysis by Gram negative bacteria (E. coli; E. coli ECO 12): ++ | Hydrolysis by Gram negative bacteria (E. coli; E. coli NCTC 10418): ++

From patent US7531646B2, “β-D-ribosidase activity indicators with a chromogenic substrate” (priority 2001, dated 2009)
